ChEMBL document CHEMBL1126463, “Thiol-induced crosslinking of human blood proteins: implications for tumor immunity” (Bioorg Med Chem Lett, 1992)

Assay: Effect of compound on gelation time of human serum induced by dithiothreitol (DTT)
Format: ADME

| SMILES | Inhibitory concentration |
| --- | --- |
| NC(CSSCC(N)C(=O)O)C(=O)O (stereo not drawn) | 20 mM |
| C=CCSS/C=C/C[S+]([O-])CC=C (stereo not drawn) [AJOENE] | 10 mM |
| O=C1O[C@H]([C@@H](O)CO)C(O)=C1O [ASCORBIC ACID] | > 100 mM |
| C=CCSSCC=C [DIALLYLDISULFIDE] | 20 mM |

Now from value to molecule:

| Inhibitory concentration | SMILES |
| --- | --- |
| > 200 mM | N[C@@H](CS)C(=O)O [CYSTEINE] |
| 20 mM | O=C1OC(C(O)CO)C(=O)C1=O (stereo not drawn) [DEHYDROASCORBIC ACID] |
| > 200 mM | C=CCSCC=C [DIALLYL SULFIDE] |
| 20 mM | CC(=O)C=O [METHYLGLYOXAL] |
